According to patent US12172995B2, “Substituted indole and indazole compounds” (BRISTOL-MYERS SQUIBB COMPANY, priority 2018, dated 2024):

Tests used:
Format in all cases: cell-based
human TLR9 = target: T1, human TLR9 (Homo sapiens, UniProt Q9NR96); assay: TLR9 inhibition reporter assay (HEK-Blue SEAP); conditions: HEK-Blue cells overexpressing human TLR9, stimulated with ODN2006 5 nM, 22 hour incubation
T1 construct: host or cells: HEK-Blue cells
T1 sequence (Q9NR96 26-1032): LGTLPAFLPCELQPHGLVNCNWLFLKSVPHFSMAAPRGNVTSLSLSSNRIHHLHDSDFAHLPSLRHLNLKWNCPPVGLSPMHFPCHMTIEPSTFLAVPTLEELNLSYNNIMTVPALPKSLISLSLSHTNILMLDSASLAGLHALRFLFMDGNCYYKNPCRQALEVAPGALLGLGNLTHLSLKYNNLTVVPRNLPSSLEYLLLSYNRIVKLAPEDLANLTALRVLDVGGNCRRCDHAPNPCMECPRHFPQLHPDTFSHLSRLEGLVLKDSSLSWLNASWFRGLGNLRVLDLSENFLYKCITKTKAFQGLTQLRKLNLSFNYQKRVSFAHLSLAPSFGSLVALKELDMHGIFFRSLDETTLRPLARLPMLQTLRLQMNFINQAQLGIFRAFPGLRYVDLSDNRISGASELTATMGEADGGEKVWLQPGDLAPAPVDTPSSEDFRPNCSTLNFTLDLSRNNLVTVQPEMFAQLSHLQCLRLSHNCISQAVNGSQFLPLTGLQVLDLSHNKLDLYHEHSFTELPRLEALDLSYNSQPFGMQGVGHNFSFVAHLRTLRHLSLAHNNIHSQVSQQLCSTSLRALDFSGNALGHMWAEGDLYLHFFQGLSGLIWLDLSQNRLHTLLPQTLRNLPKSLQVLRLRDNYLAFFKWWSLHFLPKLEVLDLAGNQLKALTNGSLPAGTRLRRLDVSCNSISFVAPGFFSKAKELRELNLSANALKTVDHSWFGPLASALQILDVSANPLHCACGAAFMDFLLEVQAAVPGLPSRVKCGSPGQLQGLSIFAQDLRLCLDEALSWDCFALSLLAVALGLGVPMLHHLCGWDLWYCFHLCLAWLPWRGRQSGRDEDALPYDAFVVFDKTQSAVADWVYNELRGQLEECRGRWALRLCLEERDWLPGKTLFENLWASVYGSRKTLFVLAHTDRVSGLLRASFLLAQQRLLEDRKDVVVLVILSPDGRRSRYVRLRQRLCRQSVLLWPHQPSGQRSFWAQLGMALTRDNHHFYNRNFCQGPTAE
Outline: (§1)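 Cells are seeded, given test compound across 0.05 nM to 50 μM, and after 30 min at room temperature stimulated with the receptor's agonist (gardiquimod 7.5 μM, R848 15.9 μM or ODN2006 5 nM for TLR7, 8, 9). SEAP is measured after 22 h at 37 °C.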

human TLR8 = target: T2, human TLR8 (Homo sapiens, UniProt Q9NR97); assay: TLR8 inhibition reporter assay (HEK-Blue SEAP); conditions: HEK-Blue cells overexpressing human TLR8, stimulated with R848 15.9 μM, 22 hour incubation
T2 construct: host or cells: HEK-Blue cells
T2 sequence (Q9NR97 27-1041): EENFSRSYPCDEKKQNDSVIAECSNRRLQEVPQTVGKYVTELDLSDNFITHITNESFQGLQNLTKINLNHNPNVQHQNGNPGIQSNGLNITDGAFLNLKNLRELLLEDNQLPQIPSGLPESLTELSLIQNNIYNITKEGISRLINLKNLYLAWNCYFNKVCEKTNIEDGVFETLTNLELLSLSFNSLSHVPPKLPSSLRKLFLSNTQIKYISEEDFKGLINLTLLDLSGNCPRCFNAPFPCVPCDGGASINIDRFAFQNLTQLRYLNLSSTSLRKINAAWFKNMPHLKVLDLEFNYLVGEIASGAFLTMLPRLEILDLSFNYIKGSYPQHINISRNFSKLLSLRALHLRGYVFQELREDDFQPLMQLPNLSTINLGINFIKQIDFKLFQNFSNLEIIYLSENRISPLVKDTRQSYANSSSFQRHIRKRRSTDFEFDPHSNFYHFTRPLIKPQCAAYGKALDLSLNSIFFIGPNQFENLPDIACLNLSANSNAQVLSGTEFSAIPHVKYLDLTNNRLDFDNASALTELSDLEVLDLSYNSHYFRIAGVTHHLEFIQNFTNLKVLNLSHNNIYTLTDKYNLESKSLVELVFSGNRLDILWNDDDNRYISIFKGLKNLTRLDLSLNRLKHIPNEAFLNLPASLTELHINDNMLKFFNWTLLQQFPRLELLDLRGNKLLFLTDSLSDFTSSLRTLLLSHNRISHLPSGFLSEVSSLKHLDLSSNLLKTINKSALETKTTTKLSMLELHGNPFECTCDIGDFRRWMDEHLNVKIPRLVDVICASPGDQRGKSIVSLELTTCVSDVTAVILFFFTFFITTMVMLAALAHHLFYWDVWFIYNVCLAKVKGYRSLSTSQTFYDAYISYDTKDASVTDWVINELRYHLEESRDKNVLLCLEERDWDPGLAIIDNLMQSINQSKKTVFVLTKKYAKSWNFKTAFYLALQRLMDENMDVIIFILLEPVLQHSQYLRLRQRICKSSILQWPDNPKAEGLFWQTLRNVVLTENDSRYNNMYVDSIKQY
Outline: as §1

human TLR7 = target: T3, human TLR7 (Homo sapiens, UniProt Q9NYK1); assay: TLR7 inhibition reporter assay (HEK-Blue SEAP); conditions: HEK-Blue cells overexpressing human TLR7, stimulated with gardiquimod 7.5 μM, 22 hour incubation
T3 construct: host or cells: HEK-Blue cells
T3 sequence (Q9NYK1 27-1049): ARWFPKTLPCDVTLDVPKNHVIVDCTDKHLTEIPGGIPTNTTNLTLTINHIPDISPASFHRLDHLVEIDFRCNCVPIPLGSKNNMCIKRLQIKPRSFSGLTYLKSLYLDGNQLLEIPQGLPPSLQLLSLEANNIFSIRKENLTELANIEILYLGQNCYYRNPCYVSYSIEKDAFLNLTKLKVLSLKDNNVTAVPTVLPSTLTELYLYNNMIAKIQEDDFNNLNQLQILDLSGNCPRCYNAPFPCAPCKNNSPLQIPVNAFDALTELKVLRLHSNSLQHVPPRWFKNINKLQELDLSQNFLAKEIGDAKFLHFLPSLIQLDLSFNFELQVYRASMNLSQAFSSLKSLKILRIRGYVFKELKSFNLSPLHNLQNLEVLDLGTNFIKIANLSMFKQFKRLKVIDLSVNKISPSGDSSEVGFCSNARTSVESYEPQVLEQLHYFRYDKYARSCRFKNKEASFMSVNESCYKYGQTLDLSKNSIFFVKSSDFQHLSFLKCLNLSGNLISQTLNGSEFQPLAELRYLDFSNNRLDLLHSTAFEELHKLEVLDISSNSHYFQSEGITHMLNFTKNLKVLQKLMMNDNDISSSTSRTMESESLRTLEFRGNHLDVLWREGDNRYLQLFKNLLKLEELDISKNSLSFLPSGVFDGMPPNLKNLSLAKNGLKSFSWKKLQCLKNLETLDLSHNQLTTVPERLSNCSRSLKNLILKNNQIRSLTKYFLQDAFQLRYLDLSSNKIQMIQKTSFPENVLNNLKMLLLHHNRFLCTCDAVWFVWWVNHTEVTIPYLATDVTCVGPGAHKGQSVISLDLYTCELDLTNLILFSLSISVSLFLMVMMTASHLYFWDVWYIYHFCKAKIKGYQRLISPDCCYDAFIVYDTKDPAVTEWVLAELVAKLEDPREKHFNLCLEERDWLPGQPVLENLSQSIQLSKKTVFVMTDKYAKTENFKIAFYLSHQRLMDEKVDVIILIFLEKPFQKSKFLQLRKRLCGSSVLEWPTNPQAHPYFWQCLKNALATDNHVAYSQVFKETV
Outline: as §1

## Cc1cc(-c2cc3[nH]nc(C4CCC(N5CCC(S(C)(=O)=O)C5)CC4)c3cc2C(C)C)cn2ncnc12 (single isomer, unassigned) [Example 211, 6-(5-isopropyl-3-(4-(3-(methylsulfonyl)pyrrolidin-1-yl)cyclohexyl)-1H-indazol-6-yl)-8-methyl-[1,2,4]triazolo[1,5-a]pyridine]
Human TLR9
  IC50: 32300 nM
Human TLR8
  IC50: 0.15 nM
Human TLR7
  IC50: 2.5 nM

## CNC1CCC(c2n[nH]c3cc(-c4cc(C)c5ncnn5c4)c(C)cc23)CC1 (stereo not drawn) [Example 44, N-methyl-4-(5-methyl-6-(8-methyl-[1,2,4]triazolo[1,5-a]pyridin-6-yl)-1H-indazol-3-yl)cyclohexan-1-amine]
Human TLR9
  IC50: 5490 nM
Human TLR8
  IC50: 1.9 nM
Human TLR7
  IC50: 46.3 nM

## Cc1cc2c(C3CCN(CCS(C)(=O)=O)CC3)n[nH]c2cc1-c1cc(C)c2ncnn2c1 [Example 68, 8-methyl-6-(5-methyl-3-(1-(2-(methylsulfonyl)ethyl)piperidin-4-yl)-1H-indazol-6-yl)-[1,2,4]triazolo[1,5-a]pyridine]
Human TLR9
  IC50: 13000 nM
Human TLR8
  IC50: 2.5 nM
Human TLR7
  IC50: 68 nM

## Cc1cc2c(C3CCCNC3)n[nH]c2cc1-c1cn2ncnc2c(C)c1C (stereo not drawn) [Example 48, 7,8-dimethyl-6-(5-methyl-3-(piperidin-3-yl)-1H-indazol-6-yl)-[1,2,4]triazolo[1,5-a]pyridine]
Human TLR9
  IC50: 2310 nM
Human TLR8
  IC50: 2.5 nM
Human TLR7
  IC50: 47.6 nM

## Cc1cc(-c2cc(C)c3ncnn3c2)cc2[nH]cc(C3CCNCC3)c12 [Example 2, 8-methyl-6-(4-methyl-3-(piperidin-4-yl)-1H-indol-6-yl)-[1,2,4]triazolo[1,5-a]pyridine]
Human TLR9
  IC50: 1040 nM
Human TLR8
  IC50: 19.9 nM
Human TLR7
  IC50: 0.9 nM

## Cc1cc(-c2cc(C)c3ncnn3c2)cc2[nH]nc(OC3CCN(C)CC3)c12 [Example 177, 8-methyl-6-(4-methyl-3-((1-methylpiperidin-4-yl)oxy)-1H-indazol-6-yl)-[1,2,4]triazolo[1,5-a]pyridine]
Human TLR9
  IC50: 928 nM
Human TLR8
  IC50: 0.5 nM
Human TLR7
  IC50: 2.7 nM

## COc1cc(-c2cc(C)c3c(OC4CCC(N(C)C)CC4)n[nH]c3c2)cn2ncnc12 (single isomer, unassigned) [Example 183, 4-((6-(8-methoxy-[1,2,4]triazolo[1,5-a]pyridin-6-yl)-4-methyl-1H-indazol-3-yl)oxy)-N,N-dimethylcyclohexan-1-amine]
Human TLR9
  IC50: 2310 nM
Human TLR8
  IC50: 8.1 nM
Human TLR7
  IC50: 4.9 nM

## Cc1cc(-c2cc(C)c3ncnn3c2)cc2[nH]nc(OC3CCN(C(=O)CN(C)C)CC3)c12 [Example 175, 2-(dimethylamino)-1-(4-((4-methyl-6-(8-methyl-[1,2,4]triazolo[1,5-a]pyridin-6-yl)-1H-indazol-3-yl)oxy)piperidin-1-yl)ethan-1-one]
Human TLR9
  IC50: 1630 nM
Human TLR8
  IC50: 10.6 nM
Human TLR7
  IC50: 5.1 nM

## Cc1cc(-c2cc(C)c3ncnn3c2)cc2[nH]nc(OC3CCC(NCCS(C)(=O)=O)CC3)c12 (stereo not drawn) [Example 188, 4-((4-methyl-6-(8-methyl-[1,2,4]triazolo[1,5-a]pyridin-6-yl)-1H-indazol-3-yl)oxy)-N-(2-(methylsulfonyl)ethyl)cyclohexan-1-amine]
Human TLR9
  IC50: 4340 nM
Human TLR8
  IC50: 2.3 nM
Human TLR7
  IC50: 4 nM

## Cc1cc2c(C3CCCN(C(=O)CN(C)C)C3)n[nH]c2cc1-c1cc(C)c2ncnn2c1 (stereo not drawn) [Example 54, 2-(dimethylamino)-1-(3-(5-methyl-6-(8-methyl-[1,2,4]triazolo[1,5-a]pyridin-6-yl)-1H-indazol-3-yl)piperidin-1-yl)ethan-1-one]
Human TLR9
  IC50: 5270 nM
Human TLR8
  IC50: 6.4 nM
Human TLR7
  IC50: 41 nM

## Cc1cc(-c2cc3[nH]nc(C4CCC(N5CCC5)CC4)c3cc2C(C)C)cn2ncnc12 (single isomer, unassigned) [Example 138, 6-(3-(4-(azetidin-1-yl)cyclohexyl)-5-isopropyl-1H-indazol-6-yl)-8-methyl-[1,2,4]triazolo[1,5-a]pyridine]
Human TLR9
  IC50: 5870 nM
Human TLR8
  IC50: 0.5 nM
Human TLR7
  IC50: 1 nM
